Experimental data published in Sander's compilation of Henry's law constants (doi:10.1016/s0378-4347(00)82845-5).

Test: Henry solubility constant Hcp at 310 K (mol/(m3 Pa))
Conditions: reference: Guitart et al. (1989)

Row | SMILES | Henry solubility constant Hcp at 310 K
1 | CCCCCCC [heptane] | 6e-06
2 | CCOC(C)=O [ethyl ethanoate] | 0.043
3 | CCOCC [diethyl ether] | 0.0063
4 | CCCCCC [hexane] | 6.7e-06
5 | ClC=C(Cl)Cl [trichloroethene] | 0.00055
6 | FC(F)(F)C(Cl)Br (configuration not stated) [1-bromo-1-chloro-2,2,2-trifluoroethane] | 0.00028
7 | C1CC1 [cyclopropane] | 7.8e-05
8 | ClCCl [dichloromethane] | 0.0034
9 | FS(F)(F)(F)(F)F [sulfur hexafluoride] | 1.4e-06
10 | C1CCCCC1 [cyclohexane] | 3.4e-05
11 | c1ccccc1 [benzene] | 0.002
12 | CC(C)=O [propanone] | 0.12
13 | CC(C)OC(C)C [diisopropyl ether] | 0.0028
14 | FC(F)OC(F)(F)C(F)Cl (configuration not stated) [2-chloro-1,1,2-trifluoroethyl difluoromethyl ether] | 0.00027
15 | CCCC [butane] | 8e-06
16 | CC(Cl)(Cl)Cl [1,1,1-trichloroethane] | 0.00032
17 | CC(C)CC(C)(C)C [2,2,4-trimethylpentane] | 4.6e-06
